According to patent US20120083525A1, “COMPOSITION FOR PREVENTING OR TREATING OBESITY-RELATED DISEASES MEDIATED BY THE ACTIVATION OF AMPK AND INCLUDING 2,5-BIS-ARYL-3,4-DIMETHYLTETRAHYDROFURAN LIGNANS AS ACTIVE INGREDIENTS” (Amorepacific Corporation, priority 2009, published 2012):

Test system: high fat diet-induced obese model
Assay: Anti-obesity effect in diet-induced obese (DIO) model, body weight change
Settings: 100 mg/kg/day oral
Method: For the oral administration, the substances were dissolved in a 5% aqueous solution of methyl cellulose (Sigma Co., USA). 7-week-old male C57BL/6J mice were prepared for test, with 10 heads per group. After an accommodation period of 1 week, the mice were kept in individual cages and maintained with 12/12-hr light-dark cycles (lighting from 7 am to 5 pm). […] The corresponding substance was orally administered once a day at regular hours (10 am) for 8 weeks. Body weight was measured once a week (11 am). After 8 weeks of administration, the body weight of the test groups and the control group was analyzed.

**Q.** For `COc1cc(C[C@H](C)[C@H](C)Cc2ccc3c(c2)OCO3)ccc1O` [Macelignan, macelignan], which “Body weight change (g) after oral administration, 14 days” value (14 days) is on record?
**A.** 4.00 g

**Q.** And the “Body weight change (g) after oral administration, 21 days” value (21 days)?
**A.** 5.31 g

**Q.** What about the “Body weight change (g) after oral administration, 28 days” value (28 days) of the same molecule?
**A.** 6.52 g

**Q.** And the “Body weight change (g) after oral administration, 35 days” value (35 days)?
**A.** 8.91 g

**Q.** What about the “Body weight change (g) after oral administration, 42 days” value (42 days) of the same molecule?
**A.** 9.70 g

**Q.** What about the “Body weight change (g) after oral administration, 49 days” value (49 days) of the same molecule?
**A.** 10.63 g
